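How tested: cells in 96-well plates exposed to compound for 48 hours at five concentrations. The concentration for 50% growth inhibition is given as GI50.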 Activity calls are given as the source filed them. Rule as the data show it: active = GI50 up to about 1.1 µM and inactive = higher.
Key:
Test in all cases: NCI anticancer screen, dose series, 48 h
SK-MEL-28 = tested on: SK-MEL-28
COLO 205 = tested on: COLO 205
IGROV-1 = tested on: IGROV-1
EKVX = tested on: EKVX
HT-29 = tested on: HT-29
SF-539 = tested on: SF-539
HOP-62 = tested on: HOP-62
U-251 = tested on: U-251
UO-31 = tested on: UO-31
LOX IMVI = tested on: LOX IMVI
MDA-MB-435 = tested on: MDA-MB-435
MCF7 = tested on: MCF7
PC-3 = tested on: PC-3
HL-60 = tested on: HL-60
RXF 393 = tested on: RXF 393
BT-549 = tested on: BT-549
DU-145 = tested on: DU-145
OVCAR-4 = tested on: OVCAR-4

Measured: GI50

O=C(N/N=C1/C(=O)N(c2ccc(Cl)cc2Cl)C(=O)C(=O)C1c1nc2ccccc2o1)c1ccccc1O (stereo unspecified)
inactive: SK-MEL-28 29.6 µM | COLO 205 52.7 µM | IGROV-1 39.9 µM | EKVX 45.7 µM | HT-29 60.7 µM | SF-539 29.4 µM | HOP-62 28.7 µM | U-251 > 10 µM

O=C(c1ccc(Cl)cc1Cl)N(C(=O)N1CCCCC1)c1ccccc1
inactive: SK-MEL-28 > 100 µM | UO-31 > 100 µM | COLO 205 > 100 µM | IGROV-1 > 100 µM | LOX IMVI > 100 µM | EKVX 5.45 µM | HT-29 > 100 µM | MDA-MB-435 > 100 µM | MCF7 > 100 µM | SF-539 > 100 µM | PC-3 > 100 µM | HL-60 > 100 µM | RXF 393 > 100 µM | BT-549 > 100 µM | DU-145 > 100 µM | U-251 > 100 µM

CCOc1ccc(NC(=O)CC2SC(Nc3ccc(Cl)cc3)=NC2=O)cc1 (stereo unspecified)
inactive: SK-MEL-28 > 100 µM | UO-31 > 100 µM | COLO 205 > 100 µM | IGROV-1 > 100 µM | LOX IMVI > 100 µM | EKVX > 100 µM | HT-29 > 100 µM | SF-539 > 100 µM | HL-60 24.2 µM | RXF 393 40.8 µM | OVCAR-4 > 100 µM | HOP-62 > 100 µM

COC(=O)[C@H]1CC(=O)C=C2CCCC21 (stereo partly specified)
inactive: SK-MEL-28 > 100 µM | UO-31 > 100 µM | COLO 205 > 100 µM | IGROV-1 > 100 µM | LOX IMVI > 100 µM | EKVX > 100 µM | HT-29 > 100 µM | SF-539 > 100 µM | HL-60 > 100 µM | RXF 393 > 100 µM | OVCAR-4 > 100 µM | HOP-62 > 100 µM | U-251 > 100 µM

Nc1nc(-c2ccccc2)cc(-c2ccc(OCc3ccccc3)cc2O)n1
inactive: SK-MEL-28 89.9 µM | UO-31 38.1 µM | COLO 205 45.7 µM | IGROV-1 32.7 µM | LOX IMVI 33.9 µM | EKVX 50.4 µM | HT-29 37.8 µM | MDA-MB-435 34 µM | MCF7 32.1 µM | SF-539 26 µM | PC-3 34.4 µM | RXF 393 27.5 µM | OVCAR-4 71.6 µM | BT-549 28.8 µM | HOP-62 83.9 µM | DU-145 73.6 µM | U-251 31.8 µM

CCOP(=O)(OCC)C1CC(O)CN1OC(=O)C(C)(C)C (stereo unspecified)
inactive: SK-MEL-28 > 100 µM | UO-31 > 100 µM | COLO 205 > 100 µM | IGROV-1 > 100 µM | LOX IMVI > 100 µM | EKVX > 100 µM | HT-29 > 100 µM | MDA-MB-435 > 100 µM | MCF7 > 100 µM | PC-3 > 100 µM | OVCAR-4 > 100 µM | HOP-62 > 100 µM | DU-145 > 100 µM | U-251 > 100 µM

CCCCC[C@@H]1OC(=O)[C@@]2(CC3c4ccccc4C2c2ccccc23)[C@H]1C(=O)OC
inactive: UO-31 85.3 µM | COLO 205 14.2 µM | IGROV-1 > 100 µM | LOX IMVI 71.4 µM | EKVX 39.7 µM | HT-29 17.3 µM | MDA-MB-435 93.1 µM | MCF7 21.8 µM | PC-3 14.6 µM | HL-60 6.35 µM | RXF 393 24.6 µM | OVCAR-4 58.2 µM | BT-549 > 100 µM | HOP-62 > 100 µM | DU-145 > 100 µM | U-251 45 µM

COc1nc2c(c(=O)n1C)N=C(c1ccccc1)[C@H](C(CC(=O)c1ccccc1)c1ccccc1)C(c1ccccc1)N2 (stereo partly specified)
inactive: SK-MEL-28 > 100 µM | UO-31 38.2 µM | COLO 205 98.9 µM | IGROV-1 49.3 µM | LOX IMVI > 100 µM | EKVX 22.2 µM | HT-29 44.7 µM | MDA-MB-435 > 100 µM | MCF7 36.1 µM | SF-539 > 100 µM | PC-3 42 µM | HL-60 38.4 µM | RXF 393 28.5 µM | OVCAR-4 20.1 µM | BT-549 > 100 µM | HOP-62 > 100 µM | DU-145 > 100 µM | U-251 > 100 µM

ClCCCC1COc2ccccc2O1 (stereo unspecified)
inactive: SK-MEL-28 > 100 µM | UO-31 > 100 µM | COLO 205 > 100 µM | IGROV-1 46.3 µM | EKVX > 100 µM | HT-29 > 100 µM | MCF7 > 100 µM | SF-539 > 100 µM | PC-3 > 100 µM | HL-60 > 100 µM | RXF 393 > 100 µM | OVCAR-4 > 100 µM | BT-549 23.1 µM | HOP-62 > 100 µM | DU-145 > 100 µM | U-251 > 100 µM

COc1cc(CNC2=NCCC2)cc(OC)c1OC
inactive: SK-MEL-28 > 100 µM | UO-31 > 100 µM | COLO 205 > 100 µM | IGROV-1 > 100 µM | EKVX 56.1 µM | HT-29 > 100 µM | MCF7 > 100 µM | SF-539 > 100 µM | PC-3 > 100 µM | HL-60 > 100 µM | RXF 393 > 100 µM | OVCAR-4 > 100 µM | BT-549 > 100 µM | HOP-62 > 100 µM | DU-145 > 100 µM | U-251 53.3 µM

CS(=O)(=O)OCOS(C)(=O)=O
inactive: SK-MEL-28 > 100 µM | UO-31 > 100 µM | COLO 205 75.3 µM | IGROV-1 > 100 µM | LOX IMVI 43.8 µM | EKVX > 100 µM | HT-29 48.3 µM | MDA-MB-435 > 100 µM | MCF7 34.4 µM | SF-539 > 100 µM | PC-3 > 100 µM | HL-60 26.7 µM | OVCAR-4 > 100 µM | BT-549 > 100 µM | HOP-62 > 100 µM | DU-145 59.6 µM | U-251 > 100 µM

CCCCCCCCCCCCC(SCCNC(=O)CCNC(=O)C(O)C(C)(C)COP(=O)(O)OP(=O)(O)OCC1OC(n2cnc3c(N)ncnc32)C(O)C1OP(=O)(O)O)C(=O)NCC(N)=O (stereo unspecified)
inactive: SK-MEL-28 > 100 µM | UO-31 64.9 µM | COLO 205 49.2 µM | IGROV-1 > 100 µM | LOX IMVI > 100 µM | EKVX > 100 µM | HT-29 > 100 µM | SF-539 52.2 µM | HL-60 72.9 µM | RXF 393 36 µM | OVCAR-4 > 100 µM | HOP-62 > 100 µM | U-251 34.9 µM

O=C(NC1CCCCC1)NS(=O)(=O)c1ccc2c(c1)CCC2 [GLYHEXAMIDE]
inactive: SK-MEL-28 > 100 µM | UO-31 > 100 µM | COLO 205 > 100 µM | IGROV-1 > 100 µM | LOX IMVI > 100 µM | EKVX > 100 µM | SF-539 > 100 µM | HL-60 > 100 µM | RXF 393 > 100 µM | U-251 > 100 µM

Reference: ChEMBL document CHEMBL1201862, “PubChem BioAssay data set” (2004)
